From patent publication US8093218B2, “Peptide derived from vascular endothelial growth factor receptor-1 binding integrin α5β1 having proangiogenic activity” (Provincia Italiana della Congregazione dei Figli …, priority 2006, dated 2012)
Entries after “also recorded” stand apart in the source; their conditions may differ.

Experiments:
[1] = test system: HUVEC adhesion to VEGFR-1/Fc; assay: inhibition by peptides of EC adhesion to VEGFR-1/Fc; type: cell-based, human; conditions: peptide added to HUVEC suspension before plating
Experimental: (§1) In order to test the ability of the twelve chosen peptides to inhibit the adhesion of the EC to VEGFR-1 mediated from the integrin α5β1, every peptide was added to one suspension of HUVEC before plated on dishes covered with VEGFR-1/Fc or fibronectin (FN). The data were indicated as percentage of adhesion, calculated to the number of cells adhered on the substrate itself in absence of peptides.

[2] = test system: HUVEC adhesion to fibronectin (FN); assay: inhibition by peptides of EC adhesion to fibronectin; type: cell-based, human; conditions: peptide added to HUVEC suspension before plating
Experimental: as §1

HUVEC [3] = assay: adhesion of HUVEC on plates with covalently linked peptides; type: cell-based, human; conditions: HUVEC incubated 1 hour on covalently linked peptide
Experimental: To establish whether the four peptides, were able to inhibit the adhesion of the EC to VEGFR-1, by supporting directly the adhesion of the EC, the peptides were linked covalently to plates and the HUVEC were incubated on plates for 1 hour. The peptide 1 was used as negative control and the peptide RGD as the positive control. Unspecific adhesion was measured by absorbance in the plates covered with BSA.

[4] = test system: HUVEC adhesion to peptide 12; assay: adhesion of HUVEC to peptide 12 in presence of chelating agents or anti-integrin antibodies; type: cell-based, human; conditions: EDTA or EGTA treatment
Experimental: The peptide 12 or the BSA, as non-specific adhesion control, were linked on plates and the HUVEC added in the presence of chelating agents (EDTA or EGTA).
The HUVEC were pre-incubated with an antibody against the integrin α5β1 or versus the integrinic subunit α6 and left to adhere on plates covered with peptide 12 or BSA.

[5] = test system: HUVEC migration induced from VEGFR-1/Fc; assay: EC migration in Boyden chambers induced by VEGFR-1/Fc; type: cell-based, human; conditions: HUVEC pre-incubated with peptide
Experimental: (§2) In order to investigate the ability to peptide 12 to influence the migration of the EC induced from VEGFR-1/Fc, a process mediated from the integrin α5β1, the HUVEC were pre-incubated with peptide 12 and peptide 1 and placed in Boyden chambers in order to analyze the migration induced from VEGFR-1/Fc or fibronectin (FN). Data represent the average of 14 microscopic fields and are referred to as percentage of inhibition compared to the migration observed in the absence of peptides.

[6] = test system: HUVEC migration induced by fibronectin (FN); assay: EC migration in Boyden chambers induced by fibronectin; type: cell-based, human; conditions: HUVEC pre-incubated with peptide
Experimental: as §2

HUVEC [7] = assay: formation of tubules of EC in Type I collagen gel; type: cell-based, human
Experimental: It was tested the ability of the peptide 12 to induce the formation of tubules of EC. HUVEC cells were plated on 24 wells plates previously covered with a mixture of gel Type I collagen, in the absence or presence of 500 μg/ml peptide 12 or peptide 1. A second layer of gel Type I collagen was placed on the adherent cells. As shown, in the absence or presence of peptides, were added, in the culture medium, different concentrations of VEGF (40 or 100 nM), or 20 μg/ml of protein VEGFR-1/Fc.

rabbit corneal tissue = assay: rabbit corneal neovascularization with peptide-releasing pellets; type: in vivo; conditions: rabbit cornea, monitored for 17 days
From the text: The FIGS. 6A and 6B show the effect on angiogenesis of the peptide 12 or Y220 compare to VEGF at different concentrations.
To address the angiogenic role, in vivo, pellets releasing peptide 12 were implanted into rabbit corneal tissue and neovascularization was monitored for 17 days.

integrin α5β1 = integrin α5β1 (Homo sapiens, UniProt P05556+P08648); assay: integrin α5β1 aggregation around peptide-coated magnetic beads (immunostaining); type: cell-based; design: endogenous in cells; host or cells: HUVEC; conditions: magnetic beads coated with peptide, immunostaining for integrin α5β1
Experimental: The integrins not linked are widely distributed on cellular membrane, but after the ligand binding and the activation merged in distinct structures called focal contacts and ECM contact.
It was examined whether the peptide 12 was able to induce aggregation of integrin α5β1 after the binding. EC adherent cells were incubated with magnetic beads coated with peptide 12, or peptide RGD or peptide RGE respectively as positive and negative controls, and immunostained with an antibody against integrin α5β1.

Sequence of integrin α5β1 (P08648 42-894 limits assumed): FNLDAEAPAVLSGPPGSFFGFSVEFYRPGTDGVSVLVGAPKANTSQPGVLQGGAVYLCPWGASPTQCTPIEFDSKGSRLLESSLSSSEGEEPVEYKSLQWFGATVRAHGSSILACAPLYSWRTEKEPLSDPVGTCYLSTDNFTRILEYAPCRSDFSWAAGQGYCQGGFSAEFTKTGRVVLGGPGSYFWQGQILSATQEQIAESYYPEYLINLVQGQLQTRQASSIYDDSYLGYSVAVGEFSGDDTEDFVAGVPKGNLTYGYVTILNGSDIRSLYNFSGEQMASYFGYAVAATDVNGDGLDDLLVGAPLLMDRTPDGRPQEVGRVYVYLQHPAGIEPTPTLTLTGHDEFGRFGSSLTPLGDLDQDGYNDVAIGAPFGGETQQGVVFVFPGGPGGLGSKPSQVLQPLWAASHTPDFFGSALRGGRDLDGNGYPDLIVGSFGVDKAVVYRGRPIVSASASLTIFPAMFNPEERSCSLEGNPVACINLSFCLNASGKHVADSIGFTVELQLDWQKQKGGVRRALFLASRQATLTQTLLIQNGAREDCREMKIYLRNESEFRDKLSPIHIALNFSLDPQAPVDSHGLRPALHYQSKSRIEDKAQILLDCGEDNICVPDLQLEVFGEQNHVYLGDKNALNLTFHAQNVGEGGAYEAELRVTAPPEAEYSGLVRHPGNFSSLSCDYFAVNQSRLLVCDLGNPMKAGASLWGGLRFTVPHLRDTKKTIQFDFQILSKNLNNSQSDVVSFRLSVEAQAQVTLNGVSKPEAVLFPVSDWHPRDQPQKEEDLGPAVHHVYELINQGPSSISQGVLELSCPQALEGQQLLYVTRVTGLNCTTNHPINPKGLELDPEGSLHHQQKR
Sequence of integrin α5β1 (P08648 895-1049 partner limits assumed): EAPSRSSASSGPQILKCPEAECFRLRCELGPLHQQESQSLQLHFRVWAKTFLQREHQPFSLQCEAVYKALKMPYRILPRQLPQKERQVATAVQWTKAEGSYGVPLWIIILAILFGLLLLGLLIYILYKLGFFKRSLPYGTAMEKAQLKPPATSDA
Sequence of integrin α5β1 (P05556 21-798): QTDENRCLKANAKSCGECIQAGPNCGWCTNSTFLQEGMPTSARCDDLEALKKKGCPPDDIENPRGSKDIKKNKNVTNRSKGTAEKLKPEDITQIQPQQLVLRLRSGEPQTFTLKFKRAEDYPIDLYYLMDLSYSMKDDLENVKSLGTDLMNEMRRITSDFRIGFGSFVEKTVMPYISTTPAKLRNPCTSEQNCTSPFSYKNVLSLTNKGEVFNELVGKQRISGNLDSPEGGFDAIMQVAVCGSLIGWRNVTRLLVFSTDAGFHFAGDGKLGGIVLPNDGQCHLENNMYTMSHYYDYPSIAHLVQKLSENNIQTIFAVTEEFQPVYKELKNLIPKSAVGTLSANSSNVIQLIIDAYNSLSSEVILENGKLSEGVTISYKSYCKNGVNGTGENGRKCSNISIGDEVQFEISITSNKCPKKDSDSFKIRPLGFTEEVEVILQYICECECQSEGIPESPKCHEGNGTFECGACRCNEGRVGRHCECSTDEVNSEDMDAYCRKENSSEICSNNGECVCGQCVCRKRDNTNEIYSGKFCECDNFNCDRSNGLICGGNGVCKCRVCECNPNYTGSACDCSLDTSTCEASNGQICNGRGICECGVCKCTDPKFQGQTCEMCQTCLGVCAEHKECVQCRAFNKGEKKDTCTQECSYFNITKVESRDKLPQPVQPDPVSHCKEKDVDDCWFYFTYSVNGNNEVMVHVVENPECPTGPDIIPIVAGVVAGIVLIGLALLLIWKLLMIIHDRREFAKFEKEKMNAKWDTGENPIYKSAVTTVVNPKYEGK

Substance: NYLTHRQ (listed as Homo sapiens) [peptide 12]
- inhibition of adhesion of EC to VEGFR-1/Fc [1]: effectively blocked; also recorded: inhibit cellular adhesion to sVEGFR-1
- inhibition of adhesion of EC to fibronectin [2]: partially inhibit
- direct support of EC adhesion by plate-linked peptide (HUVEC [3]): induced the adhesion of EC; also recorded: directly supports the adhesion of EC
- dependence of EC adhesion to peptide 12 on divalent cations [4]: requires divalent cations; also recorded: sensitive to divalent cations
- inhibition of EC migration induced by VEGFR-1/Fc [5]: completely annulled the migratory response; also recorded: inhibits the induced cellular migration from VEGFR-1
- inhibition of EC migration induced by fibronectin [6]: no significant inhibition
- effect on VEGF-induced tubule formation (HUVEC [7]; 500 μg/ml peptide with VEGF 40 nM): increased the formation of induced VEGF tubules
- induction of formation of tubules of EC (HUVEC [7]; 500 μg/ml peptide, collagen I matrix): able to induce in vitro the formation of vascular structures
- formation of vascular structures in presence of VEGFR-1/Fc (HUVEC [7]; peptide in presence of VEGFR-1/Fc (data not shown)): partially maintained its ability to induce the formation of vascular structures
- corneal neoangiogenesis (rabbit corneal tissue): strongly promoted neoangiogenesis
- integrin α5β1 aggregation / bead attachment on EC (integrin α5β1): A separate colouring for integrin α5β1 was observed around the beads
